From patent US3935229A, “Esters of 2-[(4-quinolyl)amino]-benzoic acids” (Synthelabo, priority 1973, dated 1976)

Legend:
[1] = system: carragenine-induced oedema of the paw, Sherman rats; experiment: Carragenine-induced oedema test (oedema of the paw); format: in vivo; details: Rattus norvegicus; rats, oral administration; read-out: Carragenine-induced oedema test AD (AD40 = 40% active dose)
[2] = in vivo; details: mouse, in vivo, po
Procedure: (§1) Tests were carried out on mice of both sexes, of the Swiss strain, of average weight 20 g. (± 2g.).

[3] = system: pain induced, in Swiss mice, by the intraperitoneal injection of phenylquinone; experiment: Siegmund test (analgesic effect against pain induced by intraperitoneal phenylquinone); format: in vivo; details: mice; for ED50: Mus musculus, read-out: Siegmund test AD50 (50% active dose); for analgesic effects of the peripheral type (Siegmund test), compared with amidopyrine and glafenine: oral, versus amidopyrine and glafenine
Description: 1. Effect against pain induced, in Swiss mice, by the intraperitoneal injection of phenylquinone, in accordance with the experimental procedure of Siegmund (Proc. Soc. Exp. Biol. Med., 1957, 95, 729), modified by Cheymol (C.R. Soc. Biol., 1963, 157, 521) and Brittain (Nature, London, 1963, […], 895).

[4] = system: mice of both sexes, of the Swiss strain; experiment: in vivo; details: mice, oral administration
Procedure: as §1

[5] = system: heated plate test, Swiss mice; experiment: Heated plate test (plate heated by acetone vapours; analgesic effects of the central type); details: oral, versus amidopyrine

SMILES | ED40 [1] | LD50 ([2]; Acute toxicity LD50 (50% lethal dose), mice, oral administration) | ED50 ([3]; oral administration) | LD50 [2] | analgesic effects of the peripheral type (Siegmund test), compared with amidopyrine and glafenine [3] | Acute toxicity LD50 (50% lethal dose) [4] | analgesic effects of the central type (heated plate test), compared with amidopyrine [5] | extent of the greater activity than amidopyrine in the heated plate test [5] | Siegmund test AD50 (50% active dose) ([3]; oral administration)
Cc1c(N(C)C)c(=O)n(-c2ccccc2)n1C [Amidopyrine, reference compound] | 80 mg/kg | 850 mg/kg | 50 mg/kg | – | – | – | – | – | –
O=C(OCCN1CCN(c2ccc(Cl)cc2)CC1)c1ccccc1Nc1ccnc2cc(Cl)ccc12 [Compound 72-165, 2-(4'-p-Chlorophenyl-piperazino)-ethyl 2-(7'-chloro-4' quinolyl-amino)-benzoate] | – | – | 50 mg/kg | > 2000 mg/kg | – | – | – | – | –
O=C(OCCN1CCN(c2ccccc2)CC1)c1ccccc1Nc1ccnc2cc(C(F)(F)F)ccc12 [Compound 72-242, 2-(4'-Phenyl-piperazino)-ethyl 2-(7'-trifluoro-methyl-4'quinolyl-amino)-benzoate] | 40 mg/kg | – | 25 mg/kg | > 3000 mg/kg | generally much more active | – | – | – | –
O=C(OCCN1CCN(c2ccccc2)CC1)c1ccccc1Nc1ccnc2cc(SC(F)(F)F)ccc12 [Compound 72-244, 2-(4'-Phenyl-piperazino)-ethyl 2-(7'-trifluoromethylthio-4'-quinolyl-amino)-benzoate] | – | – | 10 mg/kg | – | generally much more active | 1,200 mg/kg | – | – | –
Cc1cccc(N2CCN(CCOC(=O)c3ccccc3Nc3ccnc4cc(Cl)ccc34)CC2)c1C [Compound 72-248, 2-[4'-(2",3"-Dimethyl-phenyl)-piperazino]-ethyl 2-(7'-chloro-4'-quinolyl-amino)-benzoate] | 120 mg/kg | – | 20 mg/kg | 1900 mg/kg | generally much more active | – | – | – | –
O=C(OCCN1CCN(c2cccc(C(F)(F)F)c2)CC1)c1ccccc1Nc1ccnc2cc(Cl)ccc12 [Compound 72-391, 2-(4'-m-Trifluoromethylphenyl-piperazino)-ethyl 2-(7'-chloro-4'-quinolyl-amino)-benzoate] | 40 mg/kg | – | 20 mg/kg | – | generally much more active | 2,500 mg/kg | greater than that of amidopyrine | – | –
O=C(OCCN1CCN(c2cccc(Cl)c2)CC1)c1ccccc1Nc1ccnc2cc(Cl)ccc12 [Compound 73-018, 2-(4'-m-Chlorophenyl-piperazino)-ethyl 2-(7'-chloro-4'-quinolyl-amino)-benzoate] | 120 mg/kg | – | 6 mg/kg | 4000 mg/kg | generally much more active | – | greater than that of amidopyrine | considerable | –
O=C(OCCN1CCN(c2cccc(OC(F)(F)F)c2)CC1)c1ccccc1Nc1ccnc2cc(Cl)ccc12 [Compound 73-030, 2-(4'-m-Trifluoromethoxyphenyl-piperazino)-ethyl 2-(7'-chloro-4'-quinolyl-amino)-benzoate] | 50 mg/kg | – | 100 mg/kg | > 4000 mg/kg | – | – | – | – | –
O=C(OCCN1CCN(c2cccc(SC(F)(F)F)c2)CC1)c1ccccc1Nc1ccnc2cc(Cl)ccc12 [Compound 73-031, 2-(4'-m-Trifluoromethylthiophenyl-piperazino)-ethyl 2-(7'-chloro-4'-quinolyl-amino)-benzoate] | 30 mg/kg | – | 100 mg/kg | 3000 mg/kg | – | – | – | – | –
O=C(OCCN1CCN(c2cccc(C(F)(F)F)c2)CC1)c1ccccc1Nc1ccnc2cc(C(F)(F)F)ccc12 [Compound 73-033, 2-(4'-m-Trifluoromethylphenyl-piperazino)-ethyl 2-(7'-trifluoromethyl-4'-quinolyl-amino)-benzoate] | – | – | – | – | – | 4,000 mg/kg | – | – | 5 mg/kg
O=C(OCCN1CCN(c2cccc(Cl)c2)CC1)c1ccccc1Nc1ccnc2cc(C(F)(F)F)ccc12 [Compound 73-045, 2-(4'-m-Chlorophenyl-piperazino)-ethyl 2-(7'-trifluromethyl-4'-quinolyl-amino)-benzoate] | 30 mg/kg | – | 8 mg/kg | > 4000 mg/kg | generally much more active | – | greater than that of amidopyrine | – | –
Cc1c(Cl)cccc1N1CCN(CCOC(=O)c2ccccc2Nc2ccnc3cc(Cl)ccc23)CC1 [Compound 73-046, 2-[4'-(3"-Chloro-2"-methyl-phenyl)-piperazino]-ethyl 2-(7'-chloro-4'-quinolyl-amino)-benzoate] | 30 mg/kg | – | 13 mg/kg | > 2000 mg/kg | generally much more active | – | – | – | –
Cc1c(Cl)cccc1N1CCN(CCOC(=O)c2ccccc2Nc2ccnc3cc(C(F)(F)F)ccc23)CC1 [Compound 73-047, 2-[4'-(3"-Chloro-2"-methyl-phenyl)-piperazino]-ethyl 2-(7'-trifluoromethyl-4'-quinolyl-amino)-benzoate] | 65 mg/kg | – | 16 mg/kg | 3000 mg/kg | generally much more active | – | – | – | –
O=C(OCCN1CCN(c2cccc(SC(F)(F)F)c2)CC1)c1ccccc1Nc1ccnc2cc(C(F)(F)F)ccc12 [Compound 73-048, 2-(4'-m-Trifluoromethylthiophenyl-piperazino)-ethyl 2-(7'-trifluoromethyl-4'-quinolyl-amino)-benzoate] | 30 mg/kg | – | 6 mg/kg | 4000 mg/kg | generally much more active | – | – | – | –
O=C(OCCN1CCN(c2cccc(OC(F)(F)F)c2)CC1)c1ccccc1Nc1ccnc2cc(C(F)(F)F)ccc12 [Compound 73-051, 2-(4'-m-trifluoromethoxyphenyl-piperazino)-ethyl 2-(7'-trifluoromethyl-4'-quinolyl-amino)-benzoate] | 50 mg/kg | – | 16 mg/kg | > 4000 mg/kg | generally much more active | – | – | – | –
O=C(OCCN1CCN(c2cccc(SC(F)(F)F)c2)CC1)c1ccccc1Nc1ccnc2cc(SC(F)(F)F)ccc12 [Compound 73-069, 2-(4'-m-Trifluoromethylthiophenyl-piperazino)-ethyl 2-(7'-trifluoromethylthio-4'-quinolyl-amino)-benzoate] | 55 mg/kg | – | 50 mg/kg | – | – | 2,200 mg/kg | – | – | –
O=C(OCCN1CCN(c2cc(C(F)(F)F)cc(C(F)(F)F)c2)CC1)c1ccccc1Nc1ccnc2cc(C(F)(F)F)ccc12 [Compound 73-070, 2-[4'-(3",5"-Di-trifluoromethyl-phenyl)-piperazino]-ethyl 2-(7'-trifluoromethyl-4'-quinolyl-amino)-benzoate] | > 80 mg/kg | – | 16 mg/kg | > 4000 mg/kg | – | – | – | – | –
CCCCC1C(=O)N(c2ccccc2)N(c2ccccc2)C1=O [Phenylbutazone, reference compound] | 30 mg/kg | – | 90 mg/kg | – | – | – | – | – | –
O=C(OCCN1CCN(c2cccc(C(F)(F)F)c2)CC1)c1ccccc1Nc1ccnc2c(C(F)(F)F)cccc12 [SLB 179, 2-(4'-m-Trifluoromethylphenyl-piperazino)-ethyl 2-(8'-trifluoromethyl-4'-quinolyl-amino)-benzoate] | 120 mg/kg | – | 25 mg/kg | > 3000 mg/kg | generally much more active | – | greater than that of amidopyrine | – | –
O=C(OCCN1CCN(c2cccc(Cl)c2)CC1)c1ccccc1Nc1ccnc2c(C(F)(F)F)cccc12 [SLB 180, 2-(4'-m-Chlorophenyl-piperazino)-ethyl 2-(8'-trifluoromethyl-4'-quinolyl-amino)-benzoate] | > 100 mg/kg | – | 12 mg/kg | > 3000 mg/kg | generally much more active | – | – | – | –
O=C(OCCN1CCN(c2ccccc2)CC1)c1ccccc1Nc1ccnc2c(C(F)(F)F)cccc12 [SLB 181, 2-(4'-Phenyl-piperazino)-ethyl 2-(8'-trifluoromethyl-4'-quinolyl-amino)-benzoate] | 45 mg/kg | – | 12 mg/kg | 2000 mg/kg | generally much more active | – | – | – | –
O=C(OCCN1CCN(c2cccc(SC(F)(F)F)c2)CC1)c1ccccc1Nc1ccnc2c(C(F)(F)F)cccc12 [SLB 182, 2-(4'-m-Trifluoromethylthiophenyl-piperazino)-ethyl 2-(8'-trifluoromethyl-4'-quinolyl-amino)-benzoate] | 150 mg/kg | – | 5 mg/kg | > 3000 mg/kg | generally much more active | – | – | – | –
